Measured values taken from patent US12558342B2, “2-[2-({12,12-dimethyl-4-oxo-6-phenyl-3,11-dioxatricyclo[8.4.0.0,2,7]tetradeca-1,5,7,9-tetraen-8-yl}oxy)acetamido]benzamide and derivatives as inhibitor of clock:bmal1 interaction for the treatment of circadian rhythm diseases and disorders” (KOC UNIVERSITESI, priority 2019, dated 2026).

System: Bmal1::dluc U2OS cells
Assay: Real-time monitoring of circadian rhythm, Bmal1::dluc U2OS
Type: cell-based, human
Method: We used Bmal1::dluc U2-OS and Per1::dluc NIH 3T3, and continuously monitored the bioluminescence to record circadian rhythm. This experiment was performed in 96-well plates (triplicates) and 35-mm dishes (duplicates) in the secondary screen and detailed characterization steps respectively. Briefly, cells were seeded to reach confluency. A day after, the medium was replaced with DMEM containing 0.1 μM Dexamethasone to synchronize cells. Two hour later, 0.1 mM of Luciferin was freshly added to the recording medium (low glucose DMEM powder (with L-glutamine) supplemented with 10 mM HEPES, […] sodium bicarbonate, 3.5 mg/ml D-(+)-glucose powder, 5% FBS, 0.1 mM NEAA, 100 U/ml penicillin and […]). Then, the medium was replaced with recording medium containing appropriate amount of each compound. Control cells were treated with 0.5% vehicle (DMSO). For a detailed characterization of CLK8, whenever required, and without any further medium change, small molecule treatment was postponed to two days after bioluminescence recording started. The 96-well plates were covered and bioluminescence was monitored by Synergy H1 Hybrid Multi-Mode Reader every 32 minutes. Similarly, we sealed the 35-mm plates with vacuum grease prior to mounting them on a LumiCycle luminometer (Actimetrics). Bioluminescence was recorded every 10 minutes for 4-6 days. Raw data (counts/sec) were plotted against time. The period and amplitude parameters were obtained using LumiCycle Analysis software (Actimetrics). First, the raw data was baseline fitted (n=1), and then the baseline-subtracted data was fitted to a sine wave (damped). The first day's data was excluded from the analysis due to transient perturbations of luminescence after the medium change.
We used Bmal1::dluc U2-OS and Per1::dluc NIH 3T3, and continuously monitored the bioluminescence to record circadian rhythm. This experiment was performed in 96-well plates (triplicates) and 35-mm dishes (duplicates) in the secondary screen and detailed characterization steps respectively. Briefly, cells were seeded to reach confluency. A day after, the medium was replaced with DMEM containing 0.1 μM Dexamethasone to synchronize cells. Two hour later, 0.1 mM of Luciferin was freshly added to the recording medium (low glucose DMEM powder (with L-glutamine) supplemented with 10 mM HEPES, 0.35 mg/ml sodium bicarbonate, 3.5 mg/ml D-(+)-glucose powder, 5% FBS, 0.1 mM NEAA, 100 U/ml penicillin and […]). […] The 96-well plates were covered and bioluminescence was monitored by Synergy H1 Hybrid Multi-Mode Reader every 32 minutes. […] Bioluminescence was recorded every 10 minutes for 4-6 days. […] The first day's data was excluded from the analysis due to transient perturbations of luminescence after the medium change.

CC1(C)CCc2c(cc(OCC(=O)Nc3ccccc3C(N)=O)c3c(-c4ccccc4)cc(=O)oc23)O1 [CLK8, 2-[2-({12,12-dimethyl-4-oxo-6-phenyl-3,11-dioxatricyclo [8.4.0.0,2,7]tetradeca-1,5,7,9-tetraen-8-yl}oxy)acetamido] benzamide]
enhancement of amplitude (10 μM, treated two days after synchronization): more than 50%
period of circadian rhythm (U2OS-Bmal1::dLuc): no period changes
amplitude of circadian rhythm (U2OS-Bmal1::dLuc, dose dependent): enhances the amplitude
phase of the first trough after treatment (treated two days after synchronization, vs DMSO control): advanced the phase of the first trough
